This is an account of results in PubChem BioAssay AID1332 (Southern Research Institute, 2008).

Each structure is given as a SMILES string. In brackets after ≈: the same amount, converted by molar mass.

For the test, the system named is M. tuberculosis H37Rv growth inhibition. The test is described as follows: Mycobacterium tuberculosis H37Rv growth inhibition, confirmatory dose response, cytotoxicity (AID 1332).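 Also: bacteria incubated 7 days before adding Alamar blue readout reagent.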

Usually IC90 stands for the concentration needed for an effect of 90%.

Regarding `Nc1nc(=S)c2ncn([C@@H]3O[C@H](CO)[C@@H](O)[C@H]3O)c2[nH]1`, the IC90 is 11.9 mg/L (≈ 39.7 µM).

Take `CNCCC=C1c2ccccc2CCc2ccccc21`: the IC90 is 16.8 mg/L (≈ 63.6 µM). In the case of `C1CCC(C(CC2CCCCN2)C2CCCCC2)CC1` (centres undefined), the IC90 is 1.99 mg/L (≈ 7.16 µM). The figure for `CC(C)N=c1cc2n(-c3ccc(Cl)cc3)c3ccccc3nc-2cc1Nc1ccc(Cl)cc1` is 0.04 mg/L (≈ 0.0845 µM). The figure for `CN[C@@H]1[C@H](O[C@H]2[C@H](O[C@@H]3[C@@H](O)[C@H](O)[C@@H](N=C(N)N)[C@H](O)[C@H]3N=C(N)N)O[C@@H](C)[C@]2(O)C=O)O[C@@H](CO)[C@H](O)[C@H]1O` is 1.11 mg/L (≈ 1.92 µM); for `CCC(C)N1CCC2(CC1)N=c1c(c3c4c5c(C)c(O)c3c(O)c1=NC(=O)/C(C)=C/C=C/[C@H](C)[C@H](O)[C@@H](C)[C@@H](O)[C@@H](C)[C@H](OC(C)=O)[C@H](C)[C@@H](OC)/C=C/O[C@@](C)(O5)C4=O)N2` (some centres undefined) it is 0.04 mg/L (≈ 0.0472 µM).

On to `COc1cccc2c1C(=O)c1c(O)c3c(c(O)c1C2=O)C[C@@](O)(C(=O)CO)C[C@@H]3O[C@H]1C[C@H](N)[C@H](O)[C@H](C)O1`, for which the concentration for an effect of 90% (IC90) was 2.6 mg/L (≈ 4.79 µM).

With `CNc1ncnc2c1ncn2[C@@H]1O[C@H](CO)[C@@H](O)[C@H]1O`, the concentration for an effect of 90% (IC90) was 0.822 mg/L (≈ 2.92 µM).

As to `Cc1cccc(C)c1NC(=O)CN1CCN(CCCC(c2ccc(F)cc2)c2ccc(F)cc2)CC1`, the 90% effect concentration (IC90) is 5.27 mg/L (≈ 10.7 µM). The figure for `CS(=O)(=O)c1ccc([C@@H](O)[C@@H](CO)NC(=O)C(Cl)Cl)cc1` is 2.42 mg/L (≈ 6.81 µM). The figure for `N[C@@H]1CONC1=O` is 1.05 mg/L (≈ 10.3 µM); for `CCn1cc(C(=O)O)c(=O)c2cc(F)c(N3CCNCC3)cc21` it is 0.81 mg/L (≈ 2.54 µM); for `CN(C)c1ccc(O)c2c1CC1CC3[C@@H](N(C)C)C(=O)C(C(N)=O)=C(O)[C@]3(O)C(=O)C1=C2O` (some centres undefined) it is 2.04 mg/L (≈ 4.46 µM). As for `CC[C@H](C)[C@H]1O[C@]2(CC[C@@H]1C)C[C@@H]1C[C@@H](C/C=C(\C)[C@@H](O[C@H]3C[C@H](OC)[C@@H](O[C@H]4C[C@H](OC)[C@@H](O)[C@H](C)O4)[C@H](C)O3)[C@@H](C)/C=C/C=C3\CO[C@@H]4[C@H](O)C(C)=C[C@@H](C(=O)O1)[C@]34O)O2`, the IC90 is 1.29 mg/L (≈ 1.48 µM). The figure for `CN1CCN(CCCN2c3ccccc3Sc3ccc(Cl)cc32)CC1` is 8.01 mg/L (≈ 21.4 µM); for `O=C(N/N=C/c1ccc([N+](=O)[O-])o1)c1ccc(O)cc1` it is 1.54 mg/L (≈ 5.58 µM); for `CN(C)[C@@H]1C(=O)C(C(N)=O)=C(O)[C@@]2(O)C(=O)C3=C(O)c4c(O)ccc(Cl)c4[C@@H](O)[C@H]3C[C@@H]12` it is 12.6 mg/L (≈ 27.1 µM). The figure for `CCC(C)[C@H]1O[C@]2(C=C[C@@H]1C)C[C@@H]1C[C@@H](C/C=C(\C)C(O[C@H]3C[C@H](OC)C(O[C@H]4C[C@H](OC)[C@@H](O)[C@H](C)O4)[C@H](C)O3)[C@@H](C)/C=C/C=C3\CO[C@@H]4[C@H](O)C(C)=C[C@@H](C(=O)O1)[C@]34O)O2` (some centres undefined) is 2.72 mg/L (≈ 3.12 µM).

On to `CN(C)CCCN1c2ccccc2CCc2ccc(Cl)cc21`, for which the IC90 is 9.56 mg/L (≈ 30.4 µM). In the case of `OC(c1cc(C(F)(F)F)nc2c(C(F)(F)F)cccc12)C1CCCCN1` (centres undefined) it was 4.16 mg/L (≈ 11 µM); in that of `CSc1ccc2c(c1)C(N1CCN(C)CC1)Cc1ccccc1S2` (centres undefined), 4.56 mg/L (≈ 12.8 µM); in that of `N[C@H]1CONC1=O`, 2.27 mg/L (≈ 22.3 µM).

As to `Cc1cc(C(C)(C)CC(C)(C)C)ccc1OCCOCC[N+](C)(C)Cc1ccccc1`, the IC90 is 4.91 mg/L.

Regarding `CN(C)CCCN1c2ccccc2Sc2ccc(C(F)(F)F)cc21`, the concentration for an effect of 90% (IC90) is 7.29 mg/L (≈ 20.7 µM). On to `OCCN1CCN(CCCN2c3ccccc3Sc3ccc(C(F)(F)F)cc32)CC1`, for which the IC90 is 7.59 mg/L (≈ 17.3 µM). In the case of `CC(=O)N1CCN(c2ccc(OC[C@H]3CO[C@](Cn4ccnc4)(c4ccc(Cl)cc4Cl)O3)cc2)CC1` it was 2.49 mg/L (≈ 4.69 µM). On to `CC(C)(C)c1ccc(C(O)CCCN2CCC(C(O)(c3ccccc3)c3ccccc3)CC2)cc1` (centres undefined), for which the IC90 was 1.61 mg/L (≈ 3.42 µM).

As for `O=C(N[C@H](CO)[C@H](O)c1ccc([N+](=O)[O-])cc1)C(Cl)Cl`, the concentration for an effect of 90% (IC90) was 1.06 mg/L (≈ 3.29 µM). In the case of `O=C1CN(/N=C/c2ccc([N+](=O)[O-])o2)C(=O)N1` it was 3.92 mg/L (≈ 16.5 µM); in that of `CCCCN(CCCC)CCC(O)c1cc2c(Cl)cc(Cl)cc2c2cc(C(F)(F)F)ccc12` (centres undefined), 1.15 mg/L (≈ 2.3 µM).

`CN1C[C@H](CNC(=O)OCc2ccccc2)C[C@@H]2c3cccc4c3c(cn4C)C[C@H]21`: the concentration for an effect of 90% (IC90) was 5.85 mg/L (≈ 14.5 µM). In the case of `Nc1ccc(S(=O)(=O)Nc2ccnn2-c2ccccc2)cc1` it was 12.8 mg/L (≈ 40.7 µM). The figure for `Clc1ccc(CCC(Cn2ccnc2)Sc2c(Cl)cccc2Cl)cc1` (centres undefined) is 1.61 mg/L (≈ 3.9 µM). As to `CCN(CC)C(=S)SSC(=S)N(CC)CC`, the IC90 is 0.164 mg/L (≈ 0.553 µM). In the case of `CN1CCN(CCCN2c3ccccc3Sc3ccc(C(F)(F)F)cc32)CC1` it was 2.77 mg/L (≈ 6.8 µM); in that of `CCn1cc(C(=O)O)c(=O)c2cc(F)c(N3CCNC(C)C3)c(F)c21` (centres undefined), 0.258 mg/L (≈ 0.734 µM). As to `Clc1ccc(CSC(Cn2ccnc2)c2ccc(Cl)cc2Cl)cc1` (centres undefined), the IC90 was 2.53 mg/L (≈ 6.37 µM). Regarding `CCCCCCCCCCCCCCCC[N+](C)(C)CCN(Cc1ccc(OC)cc1)c1ncccn1`, the 90% effect concentration (IC90) was 1.1 mg/L. In the case of `CN[C@@H]1C(O[C@H]2O[C@H](CO)[C@@H](N)[C@H](O)[C@H]2O)O[C@H]2C[C@@H](N)[C@@H](O[C@H]3[C@H](O)[C@@H](O)[C@H](N)C[C@@H]3N)OC2[C@@H]1O` (some centres undefined) it was 3.57 mg/L (≈ 6.61 µM).
